From patent publication US4212881A, “Streptovaricin C derivatives” (priority 1978, dated 1980)

What follows are molecules tested on mouse (assay: Acute toxicity (LD50) in mouse). Settings: intramuscular injection.
Assay type: in vivo
Description: Acute toxicity of the novel streptovaricin C derivatives (I) are remarkably low level. For example, 19-O-methyl compound (I) has LD50 to mouse of more than 1000 mg/kg in intramuscular injection and more than 3000 mg/kg in oral dose.

| Molecule | LD50 |
| --- | --- |
| 19-O-methyl-atropisodamavaricin Fc (containing 19-O-methyl damavaricin Fc) [Example 1] | more than 1000 mg/kg |

Same assay, conditions: oral dose

| Molecule | LD50 |
| --- | --- |
| 19-O-methyl-atropisodamavaricin Fc (containing 19-O-methyl damavaricin Fc) [Example 1] | more than 3000 mg/kg |

What follows are molecules tested against reverse-transcriptase of mouse Sarcoma virus (Moloney murine leukemia virus, UniProt P03355) (assay: Effect for inhibiting reverse-transcriptase of mouse Sarcoma virus). Settings: 300 μg/ml; virus protein (MLV-moloney), 37° C. 60 minutes.
Assay type: biochemical
Description: Effect for inhibiting reverse-transcriptase of mouse Sarcoma virus.
The effect for inhibition was determined as follows:
Methanol solution containing each active ingredient at a concentration of 6 mg/ml.
Solution containing 240 μg of virus protein (MLV-moloney) in 1 ml of a buffer solution of 20 mM-tris-hydrochloric acid (pH 7.8), 0.1 M-sodium chloride and 1 mM of dithiotersitol (DTT).
Reaction medium containing 46 mM tris-hydrochloric acid (pH 8.1) 92 mM potassium chloride, 15.4 mM manganese chloride, 0.77 mM-dATP, 0.77 mM-dCTP, 0.77 mM-dGTP, 0.23 μM-3H-TTP (50 ci/mM), 7.7 mM-DTT and 0.038% NP-40.
The reaction mixture was prepared by sequentially admixing (a) 5 μl, with (b) 30 μl and (c) 65 μl and the mixture was thoroughly mixed and kept at 0° C. for 5 minutes. Then, the reaction mixture was kept at 37° C. for 60 minutes and 1 ml of cold 10% trichloroacetic acid solution was added to the reaction mixture to stop the reaction. The mixture was kept at 0° C. for 20 minutes and an insoluble components were collected on each Whatman's paper GF/c (diameter of 2.5 cm) and washed with 5 ml of cold 5% trichloroacetic acid. The residue was dried in an oven at 80° C. and charged in a viral bottle containing 10 ml of toluene solution containing scintillator PPO-POPOP, and radioactivity was measured by a scintillation spectrometer.

| Molecule | Percent inhibition (%) |
| --- | --- |
| 19-O-benzyl atropisodamavaricin Fc (containing 19-O-benzyl damavaricin Fc) [Example 2] | 67 |
| 19-O-methyl-atropisodamavaricin Fc (containing 19-O-methyl damavaricin Fc) [Example 1] | 41 |

Same assay, conditions: read-out: Percent inhibition (%)

| Molecule | inhibition at 300 µg/mL [%] |
| --- | --- |
| CCOc1c(C)c(O)c2c3c1C(=O)C(C)=CC(C)(O)C(O)C(C)C(O)C1C(=O)OC(C(C)C=CC=C(C)C(=O)NC(=C(C)C3=O)C2=O)C(C)C1O (stereo not drawn) [Example 4] | 60 |
| CCCOc1c(C)c(O)c2c3c1C(=O)C(C)=CC(C)(O)C(O)C(C)C(O)C1C(=O)OC(C(C)C=CC=C(C)C(=O)NC(=C(C)C3=O)C2=O)C(C)C1O (stereo not drawn) [Example 5] | 52 |
| CCCCOc1c(C)c(O)c2c3c1C(=O)C(C)=CC(C)(O)C(O)C(C)C(O)C1C(=O)OC(C(C)C=CC=C(C)C(=O)NC(=C(C)C3=O)C2=O)C(C)C1O (stereo not drawn) [Example 6] | 78 |
| CCCCCOc1c(C)c(O)c2c3c1C(=O)C(C)=CC(C)(O)C(O)C(C)C(O)C1C(=O)OC(C(C)C=CC=C(C)C(=O)NC(=C(C)C3=O)C2=O)C(C)C1O (stereo not drawn) [Example 7] | 52 |
| CCCCCCOc1c(C)c(O)c2c3c1C(=O)C(C)=CC(C)(O)C(O)C(C)C(O)C1C(=O)OC(C(C)C=CC=C(C)C(=O)NC(=C(C)C3=O)C2=O)C(C)C1O (stereo not drawn) [Example 8] | 60 |
| CCCCCCCCOc1c(C)c(O)c2c3c1C(=O)C(C)=CC(C)(O)C(O)C(C)C(O)C1C(=O)OC(C(C)C=CC=C(C)C(=O)NC(=C(C)C3=O)C2=O)C(C)C1O (stereo not drawn) [Example 10] | 41 |
| CCCCCCCCCCCOc1c(C)c(O)c2c3c1C(=O)C(C)=CC(C)(O)C(O)C(C)C(O)C1C(=O)OC(C(C)C=CC=C(C)C(=O)NC(=C(C)C3=O)C2=O)C(C)C1O (stereo not drawn) [Example 13] | 78 |
| C=CCOc1c(C)c(O)c2c3c1C(=O)C(C)=CC(C)(O)C(O)C(C)C(O)C1C(=O)OC(C(C)C=CC=C(C)C(=O)NC(=C(C)C3=O)C2=O)C(C)C1O (stereo not drawn) [Example 20] | 65 |
| CC1=CC=CC(C)C2OC(=O)C(C(O)C2C)C(O)C(C)C(O)C(C)(O)C=C(C)C(=O)c2c(OC3CCCCC3)c(C)c(O)c3c2C(=O)C(C)=C(NC1=O)C3=O (stereo not drawn) [Example 22] | 45 |
| CC(=O)COc1c(C)c(O)c2c3c1C(=O)C(C)=CC(C)(O)C(O)C(C)C(O)C1C(=O)OC(C(C)C=CC=C(C)C(=O)NC(=C(C)C3=O)C2=O)C(C)C1O (stereo not drawn) [Example 24] | 58 |
| CC1=CC=CC(C)C2OC(=O)C(C(O)C2C)C(O)C(C)C(O)C(C)(O)C=C(C)C(=O)c2c(OCC(=O)c3ccccc3)c(C)c(O)c3c2C(=O)C(C)=C(NC1=O)C3=O (stereo not drawn) [Example 30] | 50 |
